In this experiment the target is T1, human CCR10 (Homo sapiens, UniProt P46092).
T1 construct: expressed in transfected cells; host or cells: KJMGER8 cells (Namalwa cell-derived line), beta-estradiol-induced; hCCR10G16 cells
T1 sequence (P46092 1-362): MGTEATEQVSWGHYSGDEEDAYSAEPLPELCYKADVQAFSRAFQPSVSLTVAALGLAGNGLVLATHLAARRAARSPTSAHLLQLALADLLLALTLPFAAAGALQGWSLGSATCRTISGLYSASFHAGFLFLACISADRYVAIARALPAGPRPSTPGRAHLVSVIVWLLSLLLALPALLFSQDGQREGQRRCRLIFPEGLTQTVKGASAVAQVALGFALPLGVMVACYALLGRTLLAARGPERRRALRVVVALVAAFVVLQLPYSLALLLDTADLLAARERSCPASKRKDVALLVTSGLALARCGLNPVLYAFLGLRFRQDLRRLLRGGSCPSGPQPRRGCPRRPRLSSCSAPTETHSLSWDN
Put plainly: CCR10 antagonistic effect: calcium assay of human CCR10 (CTACK-induced increase of intracellular calcium in hCCR10G16 cells). It counts as cell-based. Conditions: at a concentration of not more than 1000 nmol/L; human CCR10-expressing hCCR10G16 cells, 300 nmol/L CTACK added; read-out: inhibition of increase in the calcium ion concentration. The essentials: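 Inhibition of CTACK-evoked calcium flux (max minus min Fluo-3 fluorescence over ~5 min, FDSS) was calculated against control in β-estradiol-induced human CCR10/Gα16 KJMGER8 cells, after 30 min compound preincubation at 37 °C; CTACK added from a 300 nmol/L solution.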
(A change in cytosolic calcium serves as a functional read-out for many receptors and channels.)

On to `Cc1ccc(Nc2cc(S(N)(=O)=O)ncc2C(=O)N2CCC(c3ccc(F)cc3)CC2)cc1` [Compound 98, 5-[4-(4-fluorophenyl)piperidine-1-carbonyl]-4-(p-tolylamino)pyridine-2-sulfonamide], for which the inhibition at up to 1 µM is not below 50%. In the case of `COc1cc(F)ccc1Nc1cc(S(N)(=O)=O)ncc1C(=O)N1CCC(c2ccc(F)cc2)CC1` [Compound 99, 4-(4-fluoro-2-methoxyphenylamino)-5-[4-(4-fluorophenyl)piperidine-1-carbonyl]pyridine-2-sulfonamide], the inhibition at up to 1 µM is not below 50%. To `Cc1cc(C(F)(F)F)ccc1Nc1cc(S(N)(=O)=O)ncc1C(=O)N1CCC(c2ccc(F)cc2)CC1` [Compound 100, 5-[4-(4-fluorophenyl)piperidine-1-carbonyl]-4-[2-methyl-4-(trifluoromethyl)phenylamino]pyridine-2-sulfonamide] belongs not below 50%.

Turning to `NS(=O)(=O)c1cc(Nc2ccccc2F)c(C(=O)N2CCC(c3ccc(F)cc3)CC2)cn1` [Compound 102, 5-[4-(4-fluorophenyl)piperidine-1-carbonyl]-4-(2-fluorophenylamino)pyridine-2-sulfonamide], the inhibition at up to 1 µM is not below 50%. The result for `NS(=O)(=O)c1cc(Nc2cccc(Cl)c2)c(C(=O)N2CCC(c3ccc(F)cc3)CC2)cn1` [Compound 103, 4-(3-chlorophenylamino)-5-[4-(4-fluorophenyl)piperidine-1-carbonyl]pyridine-2-sulfonamide] reads not below 50%; that for `COc1cc(C)c(Nc2cc(S(N)(=O)=O)ncc2C(=O)N2CCC(c3ccc(F)cc3)CC2)cc1Cl` [Compound 104, 4-(5-chloro-4-methoxy-2-methylphenylamino)-5-[4-(4-fluorophenyl)piperidine-1-carbonyl]pyridine-2-sulfonamide], not below 50%; that for `Cc1cc(O)c(Cl)cc1Nc1cc(S(N)(=O)=O)ncc1C(=O)N1CCC(c2ccc(F)cc2)CC1` [Compound 105, 4-(5-chloro-4-hydroxy-2-methylphenylamino)-5-[4-(4-fluorophenyl)piperidine-1-carbonyl]pyridine-2-sulfonamide], not below 50%. Take `NS(=O)(=O)c1cc(Nc2ccc(OC(F)F)cc2)c(C(=O)N2CCC(c3ccc(F)cc3)CC2)cn1` [Compound 106, 4-[4-(difluoromethoxy)phenylamino]-5-[4-(4-fluorophenyl)piperidine-1-carbonyl]pyridine-2-sulfonamide]: the inhibition at up to 1 µM is not below 50%.

On to `Cc1ccc(Nc2cc(S(N)(=O)=O)ncc2C(=O)N2CCC(c3ccc(F)cc3)CC2)cc1C` [Compound 107, 4-(3,4-dimethylphenylamino)-5-[4-(4-fluorophenyl)piperidine-1-carbonyl]pyridine-2-sulfonamide], for which the inhibition at up to 1 µM was not below 50%. Consider `Cc1ccc(Cl)cc1Nc1cc(S(N)(=O)=O)ncc1C(=O)N1CCC(c2ccc(F)cc2)CC1` [Compound 109, 4-(5-chloro-2-methylphenylamino)-5-[4-(4-fluorophenyl)piperidine-1-carbonyl]pyridine-2-sulfonamide], for which the inhibition at up to 1 µM is not below 50%. To `Cc1cc(C)cc(Nc2cc(S(N)(=O)=O)ncc2C(=O)N2CCC(c3ccc(F)cc3)CC2)c1` [Compound 110, 4-(3,5-dimethylphenylamino)-5-[4-(4-fluorophenyl)piperidine-1-carbonyl]pyridine-2-sulfonamide] belongs not below 50%; to `CNS(=O)(=O)c1cc(Nc2ccc(F)cc2C)c(C(=O)N2CCC(c3ccc(F)cc3)CC2)cn1` [Compound 111, 4-(4-fluoro-2-methylphenylamino)-5-[4-(4-fluorophenyl)piperidine-1-carbonyl]-N-methylpyridine-2-sulfonamide], not below 50%.

As to `COCCNS(=O)(=O)c1cc(Nc2ccc(F)cc2C)c(C(=O)N2CCC(c3ccc(F)cc3)CC2)cn1` [Compound 112, 4-(4-fluoro-2-methylphenylamino)-5-[4-(4-fluorophenyl)piperidine-1-carbonyl]-N-(2-methoxyethyl)pyridine-2-sulfonamide], the inhibition at up to 1 µM is not below 50%.

With `COC(=O)C1CCCN1S(=O)(=O)c1cc(Nc2ccc(F)cc2C)c(C(=O)N2CCC(c3ccc(F)cc3)CC2)cn1` (stereo not drawn) [Compound 116, methyl 1-{4-(4-fluoro-2-methylphenylamino)-5-[4-(4-fluorophenyl)piperidine-1-carbonyl]pyridin-2-ylsulfonyl}pyrrolidine-2-carboxylate], the inhibition at up to 1 µM is not below 50%. For the molecule `CNC(=O)C1CCCN1S(=O)(=O)c1cc(Nc2ccc(F)cc2C)c(C(=O)N2CCC(c3ccc(F)cc3)CC2)cn1` (stereo not drawn) [Compound 117, 1-{4-(4-fluoro-2-methylphenylamino)-5-[4-(4-fluorophenyl)piperidine-1-carbonyl]pyridin-2-ylsulfonyl}-N-methylpyrrolidine-2-carboxamide], the inhibition at up to 1 µM was not below 50%. On to `Cc1cc(F)ccc1Nc1cc(S(=O)(=O)N2CCCC2)ncc1C(=O)N1CCC(c2ccc(F)cc2)CC1` [Compound 119, [4-(4-fluoro-2-methylphenylamino)-6-(pyrrolidin-1-ylsulfonyl)pyridin-3-yl][4-(4-fluorophenyl)piperidin-1-yl]methanone], for which the inhibition at up to 1 µM is not below 50%. Consider `Cc1cc(F)ccc1Nc1cc(S(=O)(=O)N2CCCC2C(=O)O)ncc1C(=O)N1CCC(c2ccc(F)cc2)CC1` (stereo not drawn) [Compound 120, 1-{4-(4-fluoro-2-methylphenylamino)-5-[4-(4-fluorophenyl)piperidine-1-carbonyl]pyridin-2-ylsulfonyl}pyrrolidine-2-carboxylic acid], for which the inhibition at up to 1 µM is not below 50%. The result for `Cc1cc(F)ccc1Nc1cc(S(=O)(=O)N2CCCCC2)ncc1C(=O)N1CCC(c2ccc(F)cc2)CC1` [Compound 121, [4-(4-fluoro-2-methylphenylamino)-6-(piperidin-1-ylsulfonyl)pyridin-3-yl][4-(4-fluorophenyl)piperidin-1-yl]methanone] reads not below 50%; that for `Cc1cc(F)ccc1Nc1cc(S(=O)(=O)N2CCOCC2)ncc1C(=O)N1CCC(c2ccc(F)cc2)CC1` [Compound 122, [4-(4-fluoro-2-methylphenylamino)-6-(morpholinosulfonyl)pyridin-3-yl][4-(4-fluorophenyl)piperidin-1-yl]methanone], not below 50%. To `Cc1cc(F)ccc1Nc1cc(S(=O)(=O)N2CCCC2C(N)=O)ncc1C(=O)N1CCC(c2ccc(F)cc2)CC1` (stereo not drawn) [Compound 123, 1-{4-(4-fluoro-2-methylphenylamino)-5-[4-(4-fluorophenyl)piperidine-1-carbonyl]pyridin-2-ylsulfonyl}pyrrolidine-2-carboxamide] belongs not below 50%.

In the case of `CC(=O)N1CCN(S(=O)(=O)c2cc(Nc3ccc(F)cc3C)c(C(=O)N3CCC(c4ccc(F)cc4)CC3)cn2)CC1` [Compound 124, 1-{4-{4-(4-fluoro-2-methylphenylamino)-5-[4-(4-fluorophenyl)piperidine-1-carbonyl]pyridin-2-ylsulfonyl}piperazin-1-yl}ethanone], the inhibition at up to 1 µM is not below 50%. The result for `Cc1cc(F)ccc1Nc1cc(S(=O)(=O)N(C)C)ncc1C(=O)N1CCC(c2ccc(F)cc2)CC1` [Compound 125, 4-(4-fluoro-2-methylphenylamino)-5-[4-(4-fluorophenyl)piperidine-1-carbonyl]-N,N-dimethylpyridine-2-sulfonamide] reads not below 50%; that for `Cc1cc(F)ccc1Nc1cc(S(=O)(=O)NCC(=O)N2CCOCC2)ncc1C(=O)N1CCC(c2ccc(F)cc2)CC1` [Compound 130, 4-(4-fluoro-2-methylphenylamino)-5-[4-(4-fluorophenyl)piperidine-1-carbonyl]-N-(2-morpholino-2-oxoethyl)pyridine-2-sulfonamide], not below 50%; that for `CC(=O)CNS(=O)(=O)c1cc(Nc2ccc(F)cc2C)c(C(=O)N2CCC(c3ccc(F)cc3)CC2)cn1` [Compound 131, 4-(4-fluoro-2-methylphenylamino)-5-[4-(4-fluorophenyl)piperidine-1-carbonyl]-N-(2-oxopropyl)pyridine-2-sulfonamide], not below 50%. The result for `Cc1cnc(CNS(=O)(=O)c2cc(Nc3ccc(F)cc3C)c(C(=O)N3CCC(c4ccc(F)cc4)CC3)cn2)cn1` [Compound 134, 4-(4-fluoro-2-methylphenylamino)-5-[4-(4-fluorophenyl)piperidine-1-carbonyl]-N-[(5-methylpyrazin-2-yl)methyl]pyridine-2-sulfonamide] reads not below 50%; that for `Cc1cc(F)ccc1Nc1cc(S(=O)(=O)NCC#N)ncc1C(=O)N1CCC(c2ccc(F)cc2)CC1` [Compound 135, N-(cyanomethyl)-4-(4-fluoro-2-methylphenylamino)-5-[4-(4-fluorophenyl)piperidine-1-carbonyl]pyridine-2-sulfonamide], not below 50%; that for `CC(=O)NC1CCN(S(=O)(=O)c2cc(Nc3ccc(F)cc3C)c(C(=O)N3CCC(c4ccc(F)cc4)CC3)cn2)CC1` [Compound 136, N-{1-{4-(4-fluoro-2-methylphenylamino)-5-[4-(4-fluorophenyl)piperidine-1-carbonyl]pyridin-2-ylsulfonyl}piperidin-4-yl}acetamide], not below 50%.

The record behind these values is patent publication US9701689B2, “Substituted pyridines and pyridazines as CCR10 receptor inhibitors” (KYOWA HAKKO KIRIN CO., LTD., priority 2012, dated 2017).
